Experimental data reported in ChEMBL document CHEMBL3885881, “DrugMatrix”.

Species on record: Rattus norvegicus
Assay: DrugMatrix - Regimen: Daily Repeat
Assay type: toxicity, organism-based, Sprague-Dawley
Set-up: regimen Daily Repeat, gender Male, age 6-8 weeks
Details: in vivo, po, route oral GAVAGE, […]; for ABSOLUTE BASOPHIL / ABSOLUTE EOSINOPHIL / ABSOLUTE LYMPHOCYTE / ABSOLUTE MONOCYTE / ABSOLUTE SEGMENTED NEUTROPHIL / BASOPHIL / EOSINOPHIL / ERYTHROCYTE COUNT / HEMATOCRIT / HEMOGLOBIN / LEUKOCYTE COUNT / LYMPHOCYTE / MEAN CORPUSCULAR HEMOGLOBIN / MEAN CORPUSCULAR HEMOGLOBIN CONCENTRATION / MEAN CORPUSCULAR VOLUME / MONOCYTE / NEUTROPHIL / NUCLEATED RED BLOOD CELLS / PLATELET COUNT: tissue Blood; for ALANINE AMINOTRANSFERASE / ALBUMIN / ALKALINE PHOSPHATASE / ASPARTATE AMINOTRANSFERASE / BLOOD UREA NITROGEN / CARBON DIOXIDE / CHLORIDE / CHOLESTEROL / CREATINE PHOSPHOKINASE / CREATININE / GLUCOSE / LACTATE DEHYDROGENASE / LIPASE / PHOSPHORUS / POTASSIUM / SODIUM / TOTAL BILIRUBIN / TOTAL PROTEIN / URIC ACID: tissue Plasma
[1] = 5 mg/kg, 120 h, dose level Low, time 5 day
[2] = 50 mg/kg, 72 h, dose level High, time 3 day
[3] = 50 mg/kg, 120 h, dose level High, time 5 day

O=C(Nc1ccc(Cl)c(Cl)c1)c1cc(Cl)cc(Cl)c1O [3,3',4',5-TETRACHLOROSALICYLANILIDE]
ABSOLUTE BASOPHIL [1]: 0 CELLS/uL | ABSOLUTE EOSINOPHIL [1]: 0 CELLS/uL | ABSOLUTE LYMPHOCYTE [1]: 11308.33 CELLS/uL | ABSOLUTE MONOCYTE [1]: 94.67 CELLS/uL | ABSOLUTE SEGMENTED NEUTROPHIL [1]: 1830.33 CELLS/uL | BASOPHIL [1]: 0% | EOSINOPHIL [1]: 0% | ERYTHROCYTE COUNT [1]: 5.77 x10E6/uL | HEMATOCRIT [1]: 35.8% | HEMOGLOBIN [1]: 13.8 G/DL | LEUKOCYTE COUNT [1]: 13.23 x10E3/uL | LYMPHOCYTE [1]: 85.33% | MEAN CORPUSCULAR HEMOGLOBIN [1]: 23.93 pg | MEAN CORPUSCULAR HEMOGLOBIN CONCENTRATION [1]: 38.53 G/DL | MEAN CORPUSCULAR VOLUME [1]: 62.1 fL | MONOCYTE [1]: 0.67% | NEUTROPHIL [1]: 14% | NUCLEATED RED BLOOD CELLS [1]: 0.33 /100WBC | PLATELET COUNT [1]: 1151 x10E3/uL | ALANINE AMINOTRANSFERASE [1]: 59 u/L | ALBUMIN [1]: 4.07 G/DL | ALKALINE PHOSPHATASE [1]: 368.33 u/L | ASPARTATE AMINOTRANSFERASE [1]: 97.67 u/L | BLOOD UREA NITROGEN [1]: 14.33 mg/dL | CARBON DIOXIDE [1]: 28.67 mmol/L | CHLORIDE [1]: 101.33 MEQ/L | CHOLESTEROL [1]: 63.33 mg/dL | CREATINE PHOSPHOKINASE [1]: 534.67 u/L | CREATININE [1]: 0.21 mg/dL | GLUCOSE [1]: 164 mg/dL | LACTATE DEHYDROGENASE [1]: 242 u/L | LIPASE [1]: 11.33 u/L | PHOSPHORUS [1]: 10.3 mg/dL | POTASSIUM [1]: 5.94 MEQ/L | SODIUM [1]: 143.17 MEQ/L | TOTAL BILIRUBIN [1]: 0.13 mg/dL | TOTAL PROTEIN [1]: 5.77 G/DL | URIC ACID [1]: 1.63 mg/dL | ABSOLUTE BASOPHIL [2]: 0 CELLS/uL | ABSOLUTE EOSINOPHIL [2]: 28.67 CELLS/uL | ABSOLUTE LYMPHOCYTE [2]: 9453.33 CELLS/uL | ABSOLUTE MONOCYTE [2]: 0 CELLS/uL | ABSOLUTE SEGMENTED NEUTROPHIL [2]: 884.67 CELLS/uL | BASOPHIL [2]: 0% | EOSINOPHIL [2]: 0.33% | ERYTHROCYTE COUNT [2]: 5.84 x10E6/uL | HEMATOCRIT [2]: 36.23% | HEMOGLOBIN [2]: 13.87 G/DL | LEUKOCYTE COUNT [2]: 10.37 x10E3/uL | LYMPHOCYTE [2]: 91% | MEAN CORPUSCULAR HEMOGLOBIN [2]: 23.83 pg | MEAN CORPUSCULAR HEMOGLOBIN CONCENTRATION [2]: 38.33 G/DL | MEAN CORPUSCULAR VOLUME [2]: 62.23 fL | MONOCYTE [2]: 0% | NEUTROPHIL [2]: 8.67% | NUCLEATED RED BLOOD CELLS [2]: 0 /100WBC | PLATELET COUNT [2]: 1272.33 x10E3/uL | ALANINE AMINOTRANSFERASE [2]: 61.67 u/L | ALBUMIN [2]: 4.1 G/DL | ALKALINE PHOSPHATASE [2]: 432.67 u/L | ASPARTATE AMINOTRANSFERASE [2]: 89.67 u/L | BLOOD UREA NITROGEN [2]: 13.33 mg/dL | CARBON DIOXIDE [2]: 31 mmol/L | CHLORIDE [2]: 101.67 MEQ/L | CHOLESTEROL [2]: 79.67 mg/dL | CREATINE PHOSPHOKINASE [2]: 183.67 u/L | CREATININE [2]: 0.21 mg/dL | GLUCOSE [2]: 125.67 mg/dL | LACTATE DEHYDROGENASE [2]: 128.33 u/L | LIPASE [2]: 11.33 u/L | PHOSPHORUS [2]: 10.67 mg/dL | POTASSIUM [2]: 6.23 MEQ/L | SODIUM [2]: 144.27 MEQ/L | TOTAL BILIRUBIN [2]: 0.2 mg/dL | TOTAL PROTEIN [2]: 5.8 G/DL | URIC ACID [2]: 1.03 mg/dL | ABSOLUTE BASOPHIL [3]: 0 CELLS/uL | ABSOLUTE EOSINOPHIL [3]: 19.33 CELLS/uL | ABSOLUTE LYMPHOCYTE [3]: 5934.67 CELLS/uL | ABSOLUTE MONOCYTE [3]: 58 CELLS/uL | ABSOLUTE SEGMENTED NEUTROPHIL [3]: 688 CELLS/uL | BASOPHIL [3]: 0% | EOSINOPHIL [3]: 0.33% | ERYTHROCYTE COUNT [3]: 6.18 x10E6/uL | HEMATOCRIT [3]: 36.87% | HEMOGLOBIN [3]: 14 G/DL | LEUKOCYTE COUNT [3]: 6.7 x10E3/uL | LYMPHOCYTE [3]: 88.33% | MEAN CORPUSCULAR HEMOGLOBIN [3]: 22.73 pg | MEAN CORPUSCULAR HEMOGLOBIN CONCENTRATION [3]: 38.03 G/DL | MEAN CORPUSCULAR VOLUME [3]: 59.67 fL | MONOCYTE [3]: 0.67% | NEUTROPHIL [3]: 10.67% | NUCLEATED RED BLOOD CELLS [3]: 0 /100WBC | PLATELET COUNT [3]: 1091 x10E3/uL | ALANINE AMINOTRANSFERASE [3]: 49.33 u/L | ALBUMIN [3]: 4.27 G/DL | ALKALINE PHOSPHATASE [3]: 412 u/L | ASPARTATE AMINOTRANSFERASE [3]: 76 u/L | BLOOD UREA NITROGEN [3]: 15.67 mg/dL | CARBON DIOXIDE [3]: 32 mmol/L | CHLORIDE [3]: 101 MEQ/L | CHOLESTEROL [3]: 77.33 mg/dL | CREATINE PHOSPHOKINASE [3]: 289 u/L | CREATININE [3]: 0.25 mg/dL | GLUCOSE [3]: 133.33 mg/dL | LACTATE DEHYDROGENASE [3]: 94.67 u/L | LIPASE [3]: 11.67 u/L | PHOSPHORUS [3]: 9.23 mg/dL | POTASSIUM [3]: 5.61 MEQ/L | SODIUM [3]: 145.93 MEQ/L | TOTAL BILIRUBIN [3]: 0.13 mg/dL | TOTAL PROTEIN [3]: 6.07 G/DL | URIC ACID [3]: 1.03 mg/dL
